Assay results published in patent publication US20130281409A1, “Myelin Sheath Fatty Acids that Resolve Neuroinflammation” (priority 2012, published 2013).
Like-named read-outs stand apart in the source and are kept apart here.

Tests used:
[1] = test system: azPC-mediated inhibition of MBP Ac1-11 specific T cell proliferation; experiment: Phospholipase inhibitor effect on azPC-mediated inhibition of T cell proliferation; type: cell-based, mouse; conditions: about 40 min pre-incubation with inhibitor, 2 μg/ml MBPAc1-11, 30 μg/ml azPC, 48 hours
Experimental: 5×10^6 cells/ml were pre-incubated in complete RPMI media for about 40 min at 37° C. with 5% CO2, in the presence of the corresponding vehicle (DMSO or 100% ethanol) or a phospholipase inhibitor: OBAA (500 nM, Tocris Bioscience), U 73122 (500 nM, Tocris Bioscience), 525143 (5 μM, EMD, Calbiochem), FKGK 11 (50 μM, Caymen Chemical), YM 26734 (250 μM, Tocris Bioscience), LY 311727 (500 μM, Tocris Bioscience), CAY10590 (200 μM, Caymen Chemical), 525145 (5 μM, EMD, Calbiochem). Afterwards, the splenocytes were plated in triplicate and stimulated in vitro with 2 μg/ml of MBPAc1-11 in the presence of 30 μg/ml azPC for 48 hours. Proliferation response is the ratio of the average triplicate wells of MBP+azPC divided by the average triplicate wells of MBP, or MBP divided by MBP.

[2] = test system: MBPAc1-11-TCR transgenic splenocytes; experiment: MBPAc1-11-specific T-cell proliferation (3H-thymidine incorporation); type: cell-based, mouse; conditions: fatty-acid side-chain analogs, various concentrations
Experimental: (§1) Splenocytes were harvested from mice transgenic for the MBPAc1-11-specific T-cell receptor and stimulated with 2 μg/ml of MBPAc1-11 in the presence of 30 μg/ml of lipid. Lymph nodes and spleens were also harvested from naive C57BL/6 mice, and CD3^+ T-cell enrichment columns (R&D systems) were used to isolate CD3^+ T cells. The purified CD3^+ T cells were stimulated with 5 μg/ml of plate-bound anti-CD3 antibodies and anti-CD28 antibodies in the presence of 30 μg/ml of POPS, PGPC, azPC ester, brain sulfatides, or azPC, 0.25 mM palmitic acid, or 100% ethanol (as the vehicle control). For assessment of proliferation, 1 μCi of ^3H-thymidine was added to each well for the final 18-24 hours of culture, and incorporation of radioactivity was measured by using a Betaplate scintillation counter. Cytokine assays were performed on culture supernatants after 24 (IL-12p40) or 48 hours (IFN-γ, IL-6, and TNF) of culture by using the BD OptEIA™ Mouse ELISA kits (BD Biosciences).
5×10^6 cells/ml were stimulated in vitro with 2 μg/ml of MBPAc1-11 in the presence of various concentrations of palmitic acid (Sigma), other lipids, or 100% Ethanol (vehicle alone).
For assessment of proliferation, 1 μCi of ^3H-thymidine was added to each well for the final 18 hours of culture, and incorporation of radioactivity was quantified using a Betaplate scintillation counter.

[3] = test system: EAE in PLP139-151-immunized SJL/J mice; experiment: EAE, lipid or palmitic-acid treatment of established disease; type: in vivo, mouse
Experimental: Animal experiments were approved by, and performed in compliance with, the National Institute of Health guidelines of the Institutional Animal Care and Use Committee at Stanford University. For induction of EAE, 8- to 12-week-old female SJL/J mice (Jackson Laboratory) were immunized subcutaneously with 100 μg of PLP139-151 emulsified in CFA (Difco Laboratories). Lipid and palmitic-acid treatment: Administration of lipid, palmitic acid, or vehicle was initiated once the PLP139-151-immunized mice developed paralysis (representing clinical EAE) and repeated every other day, for a total of ten separate injections. 100 μg of POPS, PGPC, azPC ester, azPC, palmitic acid, or vehicle (0.05% Tween-20 in PBS) was administered in 0.2 ml intravenously in the tail. EAE treatment with lipid: 100 μg of PGPC or sphingomyelin or vehicle ([…] Tween-20 in PBS) was administered in 0.2 ml intravenously in the tail. Treatment with lipid or vehicle was initiated once the PLP139-151-immunized mice developed paralysis (representing clinical EAE) and repeated 3, 6, 12, and 18 days later, for a total of five separate injections.

CD3+ T cells [4] = experiment: Proliferation of anti-CD3/anti-CD28-stimulated purified T cells; type: cell-based, mouse; conditions: anti-CD3 and anti-CD28, 0.25 mM palmitic acid, 48 h
Experimental: Splenocytes were harvested from mice transgenic for the MBPAc1-11-specific T-cell receptor and stimulated with 2 μg/ml of MBPAc1-11 in the presence of 30 μg/ml of lipid. Lymph nodes and spleens were also harvested from naive C57BL/6 mice, and CD3^+ T-cell enrichment columns (R&D systems) were used to isolate CD3^+ T cells. […] Cytokine assays were performed on culture supernatants after 24 (IL-12p40) or 48 hours (IFN-γ, IL-6, and TNF) of culture by using the BD OptEIA™ Mouse ELISA kits (BD Biosciences). Cd1d^−/− T cells: We harvested splenocytes from Cd1d^−/− mice and their wild-type littermates and used CD3^+ T-cell enrichment columns (R&D systems) to isolate T cells. […] Anti-CD3/anti-CD28-stimulated purified T cells: We harvested lymph nodes and spleens from naive C57BL/6 mice and used CD3^+ T-cell enrichment columns (R&D systems) to isolate CD3^+ T cells.

CD3+ T cells [5] = experiment: Cytokine production of anti-CD3/anti-CD28-stimulated purified T cells; type: cell-based, mouse; conditions: anti-CD3 and anti-CD28, 0.25 mM palmitic acid, 48 h
Experimental: as §1
Anti-CD3/anti-CD28-stimulated purified T cells: We harvested lymph nodes and spleens from naive C57BL/6 mice and used CD3^+ T-cell enrichment columns (R&D systems) to isolate CD3^+ T cells. We then stimulated 1×10^6 cells/ml of T cells with 5 μg/ml of plate-bound anti-CD3 antibodies plus anti-CD28 antibodies in the presence of 30 μg/ml of POPS, PGPC, azPC ester, brain sulfatides, or azPC, […], or 100% ethanol (as the vehicle control).
Cytokine production by cells from the lymph nodes and spleens of PGPC co-immunized mice was measured after 66 hours of stimulation by using the BD OptEIA™ Mouse IFN-γ ELISA kit (BD Biosciences). Cytokine assays for the anti-CD3/anti-CD28 antibody-stimulated T cells and PLP139-151-stimulated splenocytes were performed on culture supernatants after 48 hours of stimulation using the BD OptEIA™ Mouse IL-6, IFN-γ, and TNF alpha ELISA kits (BD Biosciences) and the Mouse IL-17 DuoSet ELISA Development kit (R&D Systems).

[6] = test system: CD3+ T cells (gated on CD4+ T cells); experiment: T-cell apoptosis, Annexin V and 7AAD staining; type: cell-based, mouse; conditions: 0.25 mM palmitic acid, anti-CD3 and anti-CD28, 48 h
Experimental: FIG. 5. […] (C) TUNEL staining of brain and spinal-cord tissue from mice immunized with PLP139-151 peptide (to induce EAE) and treated for 12 h with azPC, POPS, or vehicle on day 15 after immunization. […] (D) Quantification of TUNEL-positive infiltrating cells in brain and spinal cord shown in panel (C). Cells were stained according to standard protocols, run on a FACScan flow cytometer (BD Biosciences), and analysed with CellQuest software (BD Immunocytometry Systems). The antibody conjugate used was FITC anti-CD4, clone GK1.5 (BD Pharmingen). 7AAD staining was performed by using the Annexin V-PE Apoptosis Detection Kit I (BD Pharmingen). Cells were stained according to standard protocols, run on a FACScan flow cytometer (BD Biosciences), and analysed with CellQuest software (BD Immunocytometry Systems) or with FlowJo software version 6.3.2 (Tree Star, Inc.).

[7] = test system: EAE in PLP139-151-immunized SJL/J mice; experiment: EAE, lipid administered prophylactically (co-immunization with PLP139-151); type: in vivo, mouse; conditions: 6 μg/injection; s.c. with PLP139-151 on day 0, i.p. on days 4 and 7
Experimental: Animal experiments were approved by, and performed in compliance with, the National Institute of Health guidelines of the Institutional Animal Care and Use Committee at Stanford University. For induction of EAE, 8- to 12-week-old female SJL/J mice (Jackson Laboratory) were immunized subcutaneously with 100 μg of PLP139-151 emulsified in CFA (Difco Laboratories). Three injections of PGPC (6 μg/mouse/injection) or vehicle (0.05% Tween-20 in PBS) were delivered on days 0, 4, and 7 after immunization with PLP139-151. On day 0, the lipid or vehicle was emulsified together with PLP139-151 in CFA and administered by subcutaneous injection. At subsequent time points, lipid or vehicle was injected intraperitoneally. EAE was assessed as previously described. To induce EAE in SJL/J mice (Jackson Mice), we immunized 8- to 12-week-old female animals subcutaneously with 100 μg of PLP139-151 emulsified in CFA (Difco Laboratories). Prophylactic administration of lipid: Three injections of PGPC or sphingomyelin (6 μg/mouse/injection) or vehicle (0.05% Tween-20 in PBS) were delivered on days 0, 4, and 7 after immunization with PLP139-151. […] Clinical disease was monitored daily using the following scoring system: 0, no disease; 1, limp tail; 2, hind limb weakness; 3, hind limb paralysis; 4, hind limb and forelimb paralysis; 5, death. […]

[8] = test system: NF-κB and ERK pathways, Bcl-2 family proteins; experiment: Immunoblot of inflammatory, survival and apoptotic signaling in anti-CD3/anti-CD28-stimulated T cells; type: cell-based, mouse; conditions: 30 μg/ml lipid, 15 min or 24 h
Experimental: CD3^+ T cells were isolated from the lymph nodes of naïve C57BL/6 mice by using CD3^+ T-cell enrichment columns (R&D systems). […] Cells were washed with ice-cold PBS and lysed in RIPA lysis buffer containing 1X Halt protease and phosphatase inhibitor cocktail (Pierce) with a Dounce homogenizer. Immunoblotting was performed with antibodies against phospho-Bim ([…]), phospho-Bad ([…]), phospho-Bcl-2 ([…]), phospho-IKKα/β (serines 180/181), phospho-p65 ([…]), phospho-ERK1/2 […]), and IκBα from Cell Signaling Technology.

[9] = test system: EAE in PLP139-151-immunized SJL/J mice; conditions: prophylactic regimen, previously tested by the applicant, cited from earlier work

In the case of `CCCC[C@H](CCC(=O)O)NC(=O)CCCCCCc1ccccc1` [CAY10950], the “Effect on azPC (azPC-mediated inhibition of MBP-specific T cell proliferation)” value [1] is reported as “Inhibited”.

In the case of `O=C(CCCCc1ccccc1)C(F)(F)C(F)(F)F` [FKGK 11], the “Effect on azPC (azPC-mediated inhibition of MBP-specific T cell proliferation)” value [1] is reported as “No effect”.

For `CCc1c(CC(N)=O)c2cc(OCCCP(=O)(O)O)ccc2n1Cc1ccccc1` [LY 311727], the “Effect on azPC (azPC-mediated inhibition of MBP-specific T cell proliferation)” value [1] was “Inhibited”.

For `COc1ccc2c(c1)CC[C@@H]1[C@@H]2CC[C@]2(C)[C@@H](NCCCCCCN3C(=O)C=CC3=O)CC[C@@H]12` [U 73122], the “Effect on azPC (azPC-mediated inhibition of MBP-specific T cell proliferation)” value [1] was “No effect”.

For `CCCCCCCCCCCC(=O)c1c(O)c(C(=O)CCCCCCCCCCC)c(O)c(C2CC(c3ccc(O)cc3)Oc3cc(O)ccc32)c1O` (stereo not drawn) [YM 26734], the “Effect on azPC (azPC-mediated inhibition of MBP-specific T cell proliferation)” value [1] was “Inhibited”.

In the case of `CCCCCCCC(=O)OC` [methyl octanoate], the “concentration at which T-cell proliferation was suppressed” value (“concentration” below) [2] is reported as 10 mM.

In the case of `CCCCCCCC(=O)O` [octanoic acid], the “concentration” value [2] is reported as 5 mM.

In the case of `CCCCCCCCCCCCCCCC(=O)O` [palmitic acid], the “EAE course after treatment was halted” value ([3]; 100 μg i.v. every other day, then stopped) is reported as “disease relapsed”, the “EAE severity, established disease” value ([3]; 100 μg i.v. once paralysis developed, every other day, ten injections) is reported as “attenuated EAE” and the T-cell proliferation (CD3+ T cells [4]) is reported as “suppressed T-cell proliferation as effectively as the phospholipids”. For the same compound, the “T-cell production of IFN-γ” value (CD3+ T cells [5]) was “suppressed”, the “T-cell production of IL-6” value (CD3+ T cells [5]) was “suppressed” and the “T-cell production of IL-17” value (CD3+ T cells [5]) was “suppressed”. For the same compound, the “T-cell production of TNF” value (CD3+ T cells [5]) was “suppressed”, the T-cell apoptosis [6] was “induced T-cell apoptosis” and the “concentration” value [2] was 0.1 mM.

With Sphingomyelin [reference compound] the “EAE severity, established disease” value ([3]; 100 μg i.v. from disease onset (10 days after immunization), five injections) was “exacerbated EAE” and the “EAE severity (clinical score)” value [7] was “attenuated EAE”.

For sulfatide [reference compound], the “CD3/CD28-induced activation of the NF-κB and ERK pathways” value [8] is given as “neither inhibited”, the EAE severity [9] is given as “exacerbated EAE” and the EAE severity ([9]; listed as sulfatides) is given as “worsened EAE”.
